According to paper PMC6915728 (Nature Communications, 2019):
Like-named read-outs stand apart in the source and are kept apart here.

How the values were obtained:
[1] = system: E. coli BW25113 overexpression strains (ASKA plasmids); assay: Minimum inhibitory concentration (MIC), serial broth dilution, single-gene overexpression strains vs empty-vector control; type: cell-based, Escherichia coli; details: MIC of overexpression strain / MIC of empty-plasmid control, broth dilution, MS medium, 100 µM IPTG, 30 °C, 20-24 h, OD600, 3 replicates
Summary of the method: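 E. coli overexpression strains grown in MS medium with chloramphenicol, induced with 100 µM IPTG for 1 h at 30 °C, then about half-million cells inoculated into 12-step AMP dilutions (typically 1.2-fold steps). OD600 read after 20–24 h at 30 °C with shaking; triplicate strains compared with empty-vector control.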

[2] = system: bacterial species in which the gene showed activity; details: cited from earlier work

KTKKKFLKKT [PXB, Polymyxin B, from Bacillus polymyxa, purchased from Sigma-Aldrich; disrupts cell membrane; cluster C1]
Relative MIC ([1]; overexpression strain gadW): 0.7
Relative MIC ([1]; overexpression strain lptB): 0.7
Relative MIC ([1]; overexpression strain mzrA): 0.66
Relative MIC ([1]; overexpression strain nikB): 1
Gene that modulates bacterial susceptibility to the AMP ([2]; Acinetobacter baumannii, ref http://aac.asm.org/content/54/12/4971.full.pdf+html): lpxA
Gene that modulates bacterial susceptibility to the AMP ([2]; Bordetella pertussis, ref http://www.ncbi.nlm.nih.gov/pmc/articles/PMC4136009/): lgmA, IgmB, IgmC
Gene that modulates bacterial susceptibility to the AMP ([2]; Burkholderia genus, ref http://www.ncbi.nlm.nih.gov/pmc/articles/PMC3143681/, http://www.ncbi.nlm.nih.gov/pmc/articles/PMC1428139/): waaF
Gene that modulates bacterial susceptibility to the AMP ([2]; Campylobacter jejuni, ref http://www.ncbi.nlm.nih.gov/pmc/articles/PMC3270987/): eptC
Gene that modulates bacterial susceptibility to the AMP ([2]; Escherichia coli, Klebsiella pneumoniae, Pseudomonas aeruginosa, Kluyvera ascorbata, ref http://www.ncbi.nlm.nih.gov/pubmed/26603172, http://ac.els-cdn.com/S1473309915005332/1-s2.0-S1473309915005332-main.pdf?_tid=16a7f944-6944-11e6-8a9d-00000aab0f02&acdnat=1471965364_7f481026d1a49114e23adef4a6b4d1a9, https://www.ncbi.nlm.nih.gov/pmc/articles/PMC5119035/): mcr1
Gene that modulates bacterial susceptibility to the AMP ([2]; Escherichia coli, Salmonella sp., Pseudomonas aeruginosa, ref https://ac.els-cdn.com/S0923250806000532/1-s2.0-S0923250806000532-main.pdf?_tid=eafe08ea-d0fa-11e7-b1a6-00000aacb35f&acdnat=1511516356_5b16dbb059dc1cc9bc53dd73456e437d): etk
Gene that modulates bacterial susceptibility to the AMP ([2]; Escherichia coli, ref http://www.jbc.org/content/287/46/38778.full.pdf, http://www.jbc.org/content/early/2007/10/10/jbc.M706172200.full.pdf, https://onlinelibrary.wiley.com/doi/epdf/10.1111/j.1365-2958.2012.08154.x): arnD
Gene that modulates bacterial susceptibility to the AMP ([2]; Helicobacter pylori, ref http://www.ncbi.nlm.nih.gov/pmc/articles/PMC1482963/): lpxE
Gene that modulates bacterial susceptibility to the AMP ([2]; Klebsiella pneumoniae, ref http://iai.asm.org/content/72/12/7107.full.pdf+html): cps
Gene that modulates bacterial susceptibility to the AMP ([2]; Klebsiella pneumoniae, ref http://jac.oxfordjournals.org/content/70/1/75.full.pdf+html, http://embomolmed.embopress.org/content/9/4/430.long): mgrB
Gene that modulates bacterial susceptibility to the AMP ([2]; Klebsiella pneumoniae, ref http://www.ncbi.nlm.nih.gov/pmc/articles/PMC2798511/): acrB
Gene that modulates bacterial susceptibility to the AMP ([2]; Neisseria meningitidis, Neisseria gonorrhoeae, ref http://www.ncbi.nlm.nih.gov/pmc/articles/PMC1196002/): mtrC, mtrD, mtrE
Gene that modulates bacterial susceptibility to the AMP ([2]; Neisseria meningitidis, ref https://www.ncbi.nlm.nih.gov/pmc/articles/PMC1196002/): lptA
Gene that modulates bacterial susceptibility to the AMP ([2]; Neisseria meningitidis, ref https://www.ncbi.nlm.nih.gov/pmc/articles/PMC1196002/pdf/0005-05.pdf): lpxL1
Gene that modulates bacterial susceptibility to the AMP ([2]; Parasutterella excrementihominis, ref https://utmb.influuent.utsystem.edu/en/publications/quorum-sensing-escherichia-coli-regulators-b-and-c-qsebc-a-novel-): qseB (pmrA)
Gene that modulates bacterial susceptibility to the AMP ([2]; Porphyromonas gingivalis, ref https://www.nature.com/articles/ijos200918.pdf?origin=ppub, https://www.ncbi.nlm.nih.gov/pmc/articles/PMC4388331/pdf/nihms-656041.pdf): lpxF
Gene that modulates bacterial susceptibility to the AMP ([2]; Pseudomonas aeruginosa, Salmonella typhimurium, Escherichia coli, ref http://www.sciencemag.org/content/286/5444/1561.full.pdf, http://onlinelibrary.wiley.com/doi/10.1111/j.1365-2958.1995.tb02299.x/abstract, http://www.ncbi.nlm.nih.gov/pmc/articles/PMC50673/pdf/pnas01098-0300.pdf, https://jb.asm.org/content/jb/182/14/4077.full.pdf): phoP (PhoPQ)
Gene that modulates bacterial susceptibility to the AMP ([2]; Pseudomonas aeruginosa, gene colR (ColRS), ref https://www.ncbi.nlm.nih.gov/pmc/articles/PMC4244539/pdf/fmicb-05-00643.pdf, http://aac.asm.org/content/57/5/2204.full.pdf+html): colR (ColRS)
Gene that modulates bacterial susceptibility to the AMP ([2]; Pseudomonas aeruginosa, gene cprR (CprRS), ref https://www.ncbi.nlm.nih.gov/pmc/articles/PMC4244539/pdf/fmicb-05-00643.pdf, http://aac.asm.org/content/57/5/2204.full.pdf+html): cprR (CprRS)
Gene that modulates bacterial susceptibility to the AMP ([2]; Pseudomonas aeruginosa, ref http://aac.asm.org/content/54/8/3372.full.pdf+html, http://aac.asm.org/content/56/12/6212.full.pdf+html, http://aac.asm.org/content/57/5/2204.full.pdf+html): parR (ParR-ParS)
Gene that modulates bacterial susceptibility to the AMP ([2]; Pseudomonas aeruginosa, ref http://jb.asm.org/content/186/2/575.long): pmrB
Gene that modulates bacterial susceptibility to the AMP ([2]; Salmonella enterica serovar Typhimurium, ref http://www.jbc.org/content/279/37/38618.long, https://onlinelibrary.wiley.com/doi/epdf/10.1111/j.1365-2958.2005.04553.x): slyA
Gene that modulates bacterial susceptibility to the AMP ([2]; Salmonella enterica serovar Typhimurium, ref http://www.jbc.org/content/279/37/38618.long): ugtL
Gene that modulates bacterial susceptibility to the AMP ([2]; Salmonella enterica serovar Typhimurium, ref http://www.microbiologyresearch.org/docserver/fulltext/micro/154/2/666.pdf?expires=1487718158&id=id&accname=guest&checksum=D8B884D02A8B2A8619216A48E0826377): yejA
Gene that modulates bacterial susceptibility to the AMP ([2]; Salmonella sp., ref https://www.ncbi.nlm.nih.gov/pmc/articles/PMC2904496/): eptA
Gene that modulates bacterial susceptibility to the AMP ([2]; Salmonella typhimurium, Escherichia coli, ref https://www.ncbi.nlm.nih.gov/pmc/articles/PMC3037666/, https://www.ncbi.nlm.nih.gov/pmc/articles/PMC3837802/pdf/zam7770.pdf): cpxA (CpxA/CpxR)
Gene that modulates bacterial susceptibility to the AMP ([2]; Salmonella typhimurium, gene pmrF (arnT operon), ref http://www.jbc.org/content/287/46/38778.full.pdf): pmrF (arnT operon)
Gene that modulates bacterial susceptibility to the AMP ([2]; Salmonella typhimurium, gene yfbG (arnA), ref http://www.jbc.org/content/287/46/38778.full.pdf): yfbG (arnA)
Gene that modulates bacterial susceptibility to the AMP ([2]; Salmonella typhimurium, ref https://www.ncbi.nlm.nih.gov/pmc/articles/PMC205548/pdf/jbacter00030-0157.pdf): pmrD
Gene that modulates bacterial susceptibility to the AMP ([2]; Staphylococcus aureus, ref http://aac.asm.org/content/51/8/2679.full.pdf+html): graR(GraRS)
Gene that modulates bacterial susceptibility to the AMP ([2]; Vibrio cholerae, ref http://pubs.acs.org/doi/pdf/10.1021/cb500438x): almE, almF, almG
Gene that modulates bacterial susceptibility to the AMP ([2]; Yersinia sp., ref http://www.helsinki.fi/yersinia/pdf_own/Bengo_MolMic_2000_37_67.pdf): rosA
Gene that modulates bacterial susceptibility to the AMP [2]: rcp (pagP) and pmm and bveA (BMEII0681)
Gene that modulates bacterial susceptibility to the AMP ([2]; pathogenic or commensal Enterobacteriaceae species, gene rcsB, ref https://www.ncbi.nlm.nih.gov/pmc/articles/PMC2895427/pdf/nihms212407.pdf): rcsB
Gene that modulates bacterial susceptibility to the AMP ([2]; pathogenic or commensal Enterobacteriaceae species, gene rcsC, ref https://www.ncbi.nlm.nih.gov/pmc/articles/PMC2895427/pdf/nihms212407.pdf): rcsC
Gene that modulates bacterial susceptibility to the AMP ([2]; pathogenic or commensal Enterobacteriaceae species, gene rcsD, ref https://www.ncbi.nlm.nih.gov/pmc/articles/PMC2895427/pdf/nihms212407.pdf): rcsD
